A value given as a limit tells only on which side of the number the result lay.

The test concerns the target T1, apelin receptor (APJ) (Homo sapiens, UniProt P35414).
T1 sequence (P35414 1-380): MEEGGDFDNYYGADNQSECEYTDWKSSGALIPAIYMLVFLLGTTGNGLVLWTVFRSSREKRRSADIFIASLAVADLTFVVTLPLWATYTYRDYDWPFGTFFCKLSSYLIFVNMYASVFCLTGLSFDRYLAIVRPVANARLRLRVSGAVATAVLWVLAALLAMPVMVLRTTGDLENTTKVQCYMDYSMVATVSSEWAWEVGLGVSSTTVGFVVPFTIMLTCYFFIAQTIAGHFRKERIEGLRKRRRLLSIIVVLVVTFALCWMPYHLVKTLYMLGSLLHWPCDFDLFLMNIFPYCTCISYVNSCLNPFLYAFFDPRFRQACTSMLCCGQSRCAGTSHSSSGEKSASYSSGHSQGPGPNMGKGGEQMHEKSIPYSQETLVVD
As to the kind of experiment: In vitro apelin agonist activity (methods of Giddings et al., Apelin-13 as positive control). It counts as cell-based. To be noted: in vitro apelin agonist activity, methods of Giddings et al., Apelin-13 as positive control; read-out: EC50 (nM) Ave. The source says: Characterization of the Apelin Agonist Activity of the Compounds
1:39-47, the contents of which are hereby incorporated by reference in its entirety. Using the methods described in Giddings et al. and Apelin-13 as a positive control.
Consider `COc1cccc(OC)c1-c1cc(C(=O)N[C@@H](CCN2CCCCC2)CC(=O)Nc2nccs2)nn1C1CCCC1` [compound 338, (3S)-3-{[1-cyclopentyl-5-(2,6-dimethoxyphenyl)-1H-pyrazol-3-yl]formamido}-5-(piperidin-1-yl)-N-(1,3-thiazol-2-yl)pentanamide], for which the EC50 was determined as 12 nM. For the molecule `COc1cccc(OC)c1-c1cc(C(=O)N[C@@H](CCN2CCCCC2)CC(=O)Nc2ncco2)nn1C1CCCC1` [compound 339, (3S)-3-{[1-cyclopentyl-5-(2,6-dimethoxyphenyl)-1H-pyrazol-3-yl]formamido}-N-(1,3-oxazol-2-yl)-5-(piperidin-1-yl)pentanamide], the EC50 turned out to be 31 nM.

As to `CCN(C(=O)c1cc(-c2c(OCC(F)(F)F)cccc2OCC(F)(F)F)n(C2CCCC2)n1)[C@@H](CCN1CCCCC1)CC(=O)NC1CCC1` [compound 342, (3S)-3-(1-{5-[2,6-bis(2,2,2-trifluoroethoxy)phenyl]-1-cyclopentyl-1H-pyrazol-3-yl}-N-ethylformamido)-N-cyclobutyl-5-(piperidin-1-yl)pentanamide], the EC50 was more than 10000 nM. On to `COc1cccc(OC)c1-c1cc(C(=O)N[C@@H](CCN2CCCCC2)Cc2nnc(C)o2)nn1C1CCCC1` [compound 343, 1-cyclopentyl-5-(2,6-dimethoxyphenyl)-N-[(2S)-1-(5-methyl-1,3,4-oxadiazol-2-yl)-4-(piperidin-1-yl)butan-2-yl]-1H-pyrazole-3-carboxamide], for which the EC50 was 1530 nM.

For `CCN(C(=O)c1cc(-c2ccccc2OC(F)(F)F)n(C2CCCC2)n1)[C@@H](CCN1CCCCC1)CC(=O)NC1CCC1` [compound 344, (3S)-N-cyclobutyl-3-(1-{1-cyclopentyl-5-[2-(trifluoromethoxy)phenyl]-1H-pyrazol-3-yl}-N-ethylformamido)-5-(piperidin-1-yl)pentanamide], the EC50 was 2370 nM. Take `CCN(C(=O)c1cc(-c2c(F)cccc2OC)n(C2CCCC2)n1)[C@@H](CCN1CCCCC1)CC(=O)NC1CCC1` [compound 345, (3S)-N-cyclobutyl-3-{1-[1-cyclopentyl-5-(2-fluoro-6-methoxyphenyl)-1H-pyrazol-3-yl]-N-ethylformamido}-5-(piperidin-1-yl)pentanamide]: the EC50 is more than 10000 nM. Regarding `CCC(CC)n1nc(C(=O)N(CC)[C@@H](CCN2CCCCC2)CC(=O)NC2CCC2)cc1-c1c(OC)cccc1OC` [compound 346, (3S)-N-cyclobutyl-3-{1-[5-(2,6-dimethoxyphenyl)-1-(pentan-3-yl)-1H-pyrazol-3-yl]-N-ethylformamido}-5-(piperidin-1-yl)pentanamide], the 50% effective concentration (EC50) is more than 10000 nM. For `CCN(C(=O)c1cc(-c2cccs2)n(C2CCCC2)n1)[C@@H](CCN1CCCCC1)CC(=O)NC1CCC1` [compound 347] the value was more than 10000 nM; for `COc1cccc(OC)c1-c1cc(C(=O)N[C@@H](CCN2CC3(CCC3)C2)CC(=O)NC2CCC2)nn1C1CCCC1` [compound 349], 197 nM; for `COc1cccc(OC)c1-c1cc(C(=O)N[C@@H](CCN2CCCCC2)CC(=O)N(C)c2nccs2)nn1C1CCCC1` [compound 351, (3S)-3-{[1-cyclopentyl-5-(2,6-dimethoxyphenyl)-1H-pyrazol-3-yl]formamido}-N-methyl-5-(piperidin-1-yl)-N-(1,3-thiazol-2-yl)pentanamide], 73 nM. Next, `COc1cccc(OC)c1-c1cc(C(=O)N[C@@H](CCN2CCCCC2)CC(N)=O)nn1C1CCCC1` [compound 352, (3S)-3-{[1-cyclopentyl-5-(2,6-dimethoxyphenyl)-1H-pyrazol-3-yl]formamido}-5-(piperidin-1-yl)pentanamide]: more than 10000 nM; `O=C(C[C@H](CCN1CCCCC1)NC(=O)c1cc(-c2c(OCC(F)(F)F)cccc2OCC(F)(F)F)n(C2CCCC2)n1)NC1CCC1` [compound 353]: more than 10000 nM.

With `O=C(C[C@H](CCN1CCCCC1)NC(=O)c1cc(-c2c(F)cc(F)cc2F)n(C2CCCC2)n1)NC1CCC1` [compound 354, (3S)-N-cyclobutyl-3-{[1-cyclopentyl-5-(2,4,6-trifluorophenyl)-1H-pyrazol-3-yl]formamido}-5-(piperidin-1-yl)pentanamide], the EC50 is more than 10000 nM. Turning to `CCOc1cc(F)c(-c2cc(C(=O)N[C@@H](CCN3CCCCC3)CC(=O)NC3CCC3)nn2C2CCCC2)c(F)c1` [compound 355, (3S)-N-cyclobutyl-3-{[1-cyclopentyl-5-(4-ethoxy-2,6-difluorophenyl)-1H-pyrazol-3-yl]formamido}-5-(piperidin-1-yl)pentanamide], the EC50 worked out at 5080 nM. As for `COc1cccc(OC)c1-c1cc(C(=O)N[C@@H](CCN2CCCCC2)CC(=O)NC2CCC2)nn1C1CCCCC1C` (stereo partly drawn) [compound 356, (3S)-N-cyclobutyl-3-{[5-(2,6-dimethoxyphenyl)-1-(2-methylcyclohexyl)-1H-pyrazol-3-yl]formamido}-5-(piperidin-1-yl)pentanamide], the EC50 was more than 10000 nM. For the molecule `CCC(CC)n1nc(C(=O)N[C@@H](CCN2CCCCC2)CC(=O)NC2CCC2)cc1-c1c(OC)cccc1OC` [compound 357, (3S)-N-cyclobutyl-3-{[5-(2,6-dimethoxyphenyl)-1-(pentan-3-yl)-1H-pyrazol-3-yl]formamido}-5-(piperidin-1-yl)pentanamide], the half-maximal effective concentration (EC50) is more than 10000 nM.

Regarding `COc1cccc(OC)c1-c1cc(C(=O)N[C@H](CCO)CCN2CCCCC2)nn1C1CCCC1` [compound 358], the EC50 was more than 10000 nM.

As for `O=C(C[C@H](CCN1CCCCC1)NC(=O)c1cc(-c2ccccc2OC(F)(F)F)n(C2CCCC2)n1)NC1CCC1` [compound 359, (3S)-N-cyclobutyl-3-({1-cyclopentyl-5-[2-(trifluoromethoxy)phenyl]-1H-pyrazol-3-yl]formamido)-5-(piperidin-1-yl)pentanamide], the concentration giving a half-maximal response (EC50) came to 271 nM. Next, `CSc1ccccc1-c1cc(C(=O)N[C@@H](CCN2CCCCC2)CC(=O)NC2CCC2)nn1C1CCCC1` [compound 360, (3S)-N-cyclobutyl-3-({1-cyclopentyl-5-[2-(methylsulfanyl)phenyl]-1H-pyrazol-3-yl]formamido)-5-(piperidin-1-yl)pentanamide]: 376 nM; `COc1ccccc1-c1cc(C(=O)N[C@@H](CCN2CCCCC2)CC(=O)NC2CCC2)nn1C1CCCC1` [compound 361, (3S)-N-cyclobutyl-3-{[1-cyclopentyl-5-(2-methoxyphenyl)-1H-pyrazol-3-yl]formamido}-5-(piperidin-1-yl)pentanamide]: 234 nM; `O=C(C[C@H](CCN1CCCCC1)NC(=O)c1cc(-c2cccs2)n(C2CCCC2)n1)NC1CCC1` [compound 362, (3S)-N-cyclobutyl-3-{[1-cyclopentyl-5-(thiophen-2-yl)-1H-pyrazol-3-yl]formamido}-5-(piperidin-1-yl)pentanamide]: 5860 nM. For the molecule `COc1cccc(OC)c1-c1cc(C(=O)N[C@@H](CCN2CCCCC2)Cc2nnn[nH]2)nn1C1CCCC1` [compound 364, 1-cyclopentyl-5-(2,6-dimethoxyphenyl)-N-[(2S)-4-(piperidin-1-yl)-1-(1H-1,2,3,4-tetrazol-5-yl)butan-2-yl]-1H-pyrazole-3-carboxamide], the EC50 worked out at 235 nM.

Regarding `O=C(C[C@H](CCN1CCCCC1)NC(=O)c1cc(-c2ccccc2)n(C2CCCC2)n1)NC1CCC1` [compound 365, (3S)-N-cyclobutyl-3-[(1-cyclopentyl-5-phenyl-1H-pyrazol-3-yl)formamido]-5-(piperidin-1-yl)pentanamide], the EC50 was more than 10000 nM. Consider `O=C(C[C@H](CCN1CCCCC1)NC(=O)c1cc(-c2ccc(F)cc2OCC(F)(F)F)n(C2CCCC2)n1)NC1CCC1` [compound 366, (3S)-N-cyclobutyl-3-({1-cyclopentyl-5[4-fluoro-2-(2,2,2-trifluoroethoxy)phenyl]-1H-pyrazol-3-yl]formamido)-5-(piperidin-1-yl)pentanamide], for which the EC50 is more than 10000 nM. For the molecule `CS(=O)(=O)c1ccccc1-c1cc(C(=O)N[C@@H](CCN2CCCCC2)CC(=O)NC2CCC2)nn1C1CCCC1` [compound 367, (3S)-N-cyclobutyl-3-{[1-cyclopentyl-5-(2-methanesulfonylphenyl)-1H-pyrazol-3-yl]formamido}-5-(piperidin-1-yl)pentanamide], the EC50 turned out to be 2970 nM. Consider `O=C(C[C@H](CCN1CCCCC1)NC(=O)c1cc(-c2cncnc2)n(C2CCCC2)n1)NC1CCC1` [compound 368, (3S)-N-cyclobutyl-3-{[1-cyclopentyl-5-(pyrimidin-5-yl)-1H-pyrazol-3-yl]formamido}-5-(piperidin-1-yl)pentanamide], for which the 50% effective concentration (EC50) was more than 10000 nM. `Cc1noc(C)c1-c1cc(C(=O)N[C@@H](CCN2CCCCC2)CC(=O)NC2CCC2)nn1C1CCCC1` [compound 369, (3S)-N-cyclobu tyl-3-{[1-cyclopentyl-5-(dimethyl-1,2-oxazol-4-yl)-1H-pyrazol-3-yl]formamido}-5-(piperidin-1-yl)pentanamide]: the EC50 is more than 10000 nM. Turning to `COc1cccc(Cl)c1-c1cc(C(=O)N[C@@H](CCN2CCCCC2)CC(=O)NC2CCC2)nn1C1CCCC1` [compound 370, (3S)-3-{[5-(2-chloro-6-methoxyphenyl)-1-cyclopentyl-1H-pyrazol-3-yl]formamido}-N-cyclobutyl-5-(piperidin-1-yl)pentanamide], the concentration for a half-maximal effect (EC50) stood at 1030 nM. Consider `Cc1cccc(C)c1-c1cc(C(=O)N[C@@H](CCN2CCCCC2)CC(=O)NC2CCC2)nn1C1CCCC1` [compound 371, (3S)-N-cyclobutyl-3-{[1-cyclopentyl-5-(2,6-dimethylphenyl)-1H-pyrazol-3-yl]formamido}-5-(piperidin-1-yl)pentanamide], for which the EC50 turned out to be 3840 nM.

For orientation: EC50 means the concentration giving half of the maximal effect.
